{
  "source": "PubChem BioAssay AID330",
  "about": "(DTP/NCI, 2004)",
  "tested_on": "P388 leukemia ip, CD2F1 mice, survival T/C",
  "assay": "NCI In Vivo Anticancer Drug Screen. Data for tumor model P388 Leukemia (intraperitoneal) in CD2F1 (CDF1) mice",
  "conditions": "endpoint: median survival time, higher = longer survival",
  "summary_of_the_method": "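Mice carrying the transplanted tumor received test compound or vehicle. Survival was recorded in each group, and the value is the treated-group measurement divided by that of the vehicle-treated control group.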",
  "note": "Values joined by “and” are separate entries in the source; they are usually repeats but may differ in a detail not shown here. Identical values can stand only once. Inconclusive results and toxic doses are left out.",
  "data": [
    {"smiles": "NNc1n[nH]c(=O)c2cnccc12", "values": [
      {"measurement": "T/C", "setting": "dose: 25.0 mg/kg/injection, schedule: Q04DX002 (ip), vehicle: saline with Tween-80", "result": "96 % of control"},
      {"measurement": "T/C", "setting": "dose: 50.0 mg/kg/injection, schedule: Q04DX002 (ip), vehicle: saline with Tween-80", "result": "93 % of control"},
      {"measurement": "T/C", "setting": "dose: 100.0 mg/kg/injection, schedule: Q04DX002 (ip), vehicle: saline with Tween-80", "result": "100 % of control and 95 % of control"}
    ]},
    {"smiles": "O=C(NO)C1CCCCC1O", "note": "(centres undefined)", "values": [
      {"measurement": "T/C", "setting": "dose: 12.5 mg/kg/injection, schedule: Q04DX003 (ip), vehicle: saline", "result": "100 % of control"},
      {"measurement": "T/C", "setting": "dose: 25.0 mg/kg/injection, schedule: Q04DX003 (ip), vehicle: saline", "result": "100 % of control"},
      {"measurement": "T/C", "setting": "dose: 50.0 mg/kg/injection, schedule: Q04DX003 (ip), vehicle: saline", "result": "110 % of control"},
      {"measurement": "T/C", "setting": "dose: 400.0 mg/kg/injection, schedule: Q04DX003 (ip), vehicle: saline", "result": "110 % of control"}
    ]},
    {"smiles": "C[C@]12CCC(=O)N[C@@H]1CC[C@@H]1[C@@H]2CC[C@]2(C)[C@@H](OC(=O)COc3ccc(N(CCCl)CCCl)cc3)CC[C@@H]12", "values": [
      {"measurement": "T/C", "setting": "dose: 2.5 mg/kg/injection, schedule: Q01DX005 (ip), vehicle: saline with Tween-80", "result": "116 % of control"},
      {"measurement": "T/C", "setting": "dose: 10.0 mg/kg/injection, schedule: Q01DX005 (ip), vehicle: saline with Tween-80", "result": "155 % of control"},
      {"measurement": "T/C", "setting": "dose: 15.0 mg/kg/injection, schedule: Q01DX005 (ip), vehicle: saline with Tween-80", "result": "181 % of control"},
      {"measurement": "T/C", "setting": "dose: 20.0 mg/kg/injection, schedule: Q01DX005 (ip), vehicle: saline with Tween-80", "result": "192 % of control"},
      {"measurement": "T/C", "setting": "dose: 30.0 mg/kg/injection, schedule: Q01DX005 (ip), vehicle: saline with Tween-80", "result": "220 % of control"}
    ]},
    {"smiles": "Cc1cc(C(C(N)=O)c2ccccc2)ccc1N(CCCl)CCCl", "note": "(centres undefined)", "values": [
      {"measurement": "T/C", "setting": "dose: 9.37 mg/kg/injection, schedule: Q01DX009 (ip), vehicle: other", "result": "168 % of control"},
      {"measurement": "T/C", "setting": "dose: 18.75 mg/kg/injection, schedule: Q01DX009 (ip), vehicle: other", "result": "195 % of control"},
      {"measurement": "T/C", "setting": "dose: 25.0 mg/kg/injection, schedule: Q04DX003 (ip), vehicle: Klucel (hydroxypropylcellulose) (HPC)", "result": "184 % of control"},
      {"measurement": "T/C", "setting": "dose: 50.0 mg/kg/injection, schedule: Q04DX003 (ip), vehicle: Klucel (hydroxypropylcellulose) (HPC)", "result": "176 % of control"},
      {"measurement": "T/C", "setting": "dose: 100.0 mg/kg/injection, schedule: Q04DX003 (ip), vehicle: Klucel (hydroxypropylcellulose) (HPC)", "result": "97 % of control"}
    ]},
    {"smiles": "CCCCCCSC(=O)Nc1ccc(C)c(NC(=O)SCCCCCC)c1", "values": [
      {"measurement": "T/C", "setting": "dose: 50.0 mg/kg/injection, schedule: Q01DX009 (ip), vehicle: saline with Tween-80", "result": "100 % of control"},
      {"measurement": "T/C", "setting": "dose: 100.0 mg/kg/injection, schedule: Q01DX009 (ip), vehicle: saline with Tween-80", "result": "100 % of control"},
      {"measurement": "T/C", "setting": "dose: 200.0 mg/kg/injection, schedule: Q01DX009 (ip), vehicle: saline with Tween-80", "result": "100 % of control"}
    ]},
    {"smiles": "CC1CN(c2ccc(Cl)cc2)CCOC(=O)O1", "note": "(centres undefined)", "values": [
      {"measurement": "T/C", "setting": "dose: 100.0 mg/kg/injection, schedule: Q01DX001 (ip), vehicle: saline with Tween-80", "result": "92 % of control"},
      {"measurement": "T/C", "setting": "dose: 200.0 mg/kg/injection, schedule: Q01DX001 (ip), vehicle: saline with Tween-80", "result": "95 % of control"},
      {"measurement": "T/C", "setting": "dose: 400.0 mg/kg/injection, schedule: Q01DX001 (ip), vehicle: saline with Tween-80", "result": "92 % of control"}
    ]},
    {"smiles": "CC(C)(O)[C@@H]1Cc2cc3ccc(=O)oc3cc2O1", "values": [
      {"measurement": "T/C", "setting": "dose: 1.0 mg/kg/injection, schedule: Q01DX005 (ip), vehicle: Klucel (hydroxypropylcellulose) (HPC)", "result": "89 % of control"},
      {"measurement": "T/C", "setting": "dose: 2.0 mg/kg/injection, schedule: Q01DX005 (ip), vehicle: Klucel (hydroxypropylcellulose) (HPC)", "result": "102 % of control"},
      {"measurement": "T/C", "setting": "dose: 4.0 mg/kg/injection, schedule: Q01DX005 (ip), vehicle: Klucel (hydroxypropylcellulose) (HPC)", "result": "98 % of control"},
      {"measurement": "T/C", "setting": "dose: 8.0 mg/kg/injection, schedule: Q01DX005 (ip), vehicle: Klucel (hydroxypropylcellulose) (HPC)", "result": "96 % of control"},
      {"measurement": "T/C", "setting": "dose: 16.0 mg/kg/injection, schedule: Q01DX005 (ip), vehicle: Klucel (hydroxypropylcellulose) (HPC)", "result": "96 % of control"}
    ]},
    {"smiles": "CCN1CCC(O)(/C=C/c2ccccc2)C(C(=O)/C=C/c2ccccc2)C1", "note": "(centres undefined)", "values": [
      {"measurement": "T/C", "setting": "dose: 60.0 mg/kg/injection, schedule: Q01DX005 (ip), vehicle: Klucel (hydroxypropylcellulose) (HPC)", "result": "108 % of control"},
      {"measurement": "T/C", "setting": "dose: 120.0 mg/kg/injection, schedule: Q01DX005 (ip), vehicle: Klucel (hydroxypropylcellulose) (HPC)", "result": "111 % of control"}
    ]},
    {"smiles": "CCCCN(CCCC)CCOc1c[nH]c(=O)[nH]c1=O", "values": [
      {"measurement": "T/C", "setting": "dose: 50.0 mg/kg/injection, schedule: Q01DX005 (ip), vehicle: Klucel (hydroxypropylcellulose) (HPC)", "result": "103 % of control"},
      {"measurement": "T/C", "setting": "dose: 100.0 mg/kg/injection, schedule: Q01DX005 (ip), vehicle: Klucel (hydroxypropylcellulose) (HPC)", "result": "106 % of control"}
    ]},
    {"smiles": "O=C1c2ccccc2C(=O)c2c1ccc1ccccc21", "values": [
      {"measurement": "T/C", "setting": "dose: 50.0 mg/kg/injection, schedule: Q01DX005 (ip), vehicle: saline with Tween-80", "result": "99 % of control"},
      {"measurement": "T/C", "setting": "dose: 100.0 mg/kg/injection, schedule: Q01DX005 (ip), vehicle: saline with Tween-80", "result": "89 % of control"}
    ]},
    {"smiles": "CCO/C=C(/C#N)C(=O)OC", "values": [
      {"measurement": "T/C", "setting": "dose: 100.0 mg/kg/injection, schedule: Q04DX002 (ip), vehicle: saline", "result": "100 % of control"},
      {"measurement": "T/C", "setting": "dose: 200.0 mg/kg/injection, schedule: Q04DX002 (ip), vehicle: saline", "result": "101 % of control"},
      {"measurement": "T/C", "setting": "dose: 400.0 mg/kg/injection, schedule: Q04DX002 (ip), vehicle: saline", "result": "100 % of control"}
    ]},
    {"smiles": "[C-]#[O+].[C-]#[O+].[CH3][Sn]([CH3])[c]1ccccc1.[Fe+5].[c-]1[c-][c-][cH-][c-]1", "values": [
      {"measurement": "T/C", "setting": "dose: 100.0 mg/kg/injection, schedule: Q04DX003 (ip), vehicle: saline with Tween-80", "result": "108 % of control"},
      {"measurement": "T/C", "setting": "dose: 200.0 mg/kg/injection, schedule: Q04DX003 (ip), vehicle: saline with Tween-80", "result": "118 % of control"}
    ]}
  ]
}
